In brackets after ≈: the same amount, converted by molar mass. Where two headings read alike, the source gives them in different places.
What was measured:
mc^2-7000 Mtb = experiment: MABA MIC99 determination, mc^2-7000 strain; type: cell-based, Mycobacterium tuberculosis; details: for MIC99 mc^2-7000 Mtb acetate: M9 media with acetate; for MIC99: Mycobacterium tuberculosis
UV absorbance peak = UV absorbance peak in solution
[1] = type: in vitro ADME; details: equilibrium dialysis
H37Rv = experiment: MABA MIC99 determination, H37Rv strain; type: cell-based, Mycobacterium tuberculosis
[2] = Compound stability in solution; details: stability in cell growth media or buffer solutions
M. tuberculosis = type: in vivo; details: target dose 30 mg/kg, once a day, 9 days post-infection
ICL [3] = target: T1, ICL (Mycobacterium tuberculosis, UniProt P9WKK7); experiment: Isocitrate lyase; type: biochemical; details: single concentration point of 40 μg/ml
T1 sequence (P9WKK7 1-428): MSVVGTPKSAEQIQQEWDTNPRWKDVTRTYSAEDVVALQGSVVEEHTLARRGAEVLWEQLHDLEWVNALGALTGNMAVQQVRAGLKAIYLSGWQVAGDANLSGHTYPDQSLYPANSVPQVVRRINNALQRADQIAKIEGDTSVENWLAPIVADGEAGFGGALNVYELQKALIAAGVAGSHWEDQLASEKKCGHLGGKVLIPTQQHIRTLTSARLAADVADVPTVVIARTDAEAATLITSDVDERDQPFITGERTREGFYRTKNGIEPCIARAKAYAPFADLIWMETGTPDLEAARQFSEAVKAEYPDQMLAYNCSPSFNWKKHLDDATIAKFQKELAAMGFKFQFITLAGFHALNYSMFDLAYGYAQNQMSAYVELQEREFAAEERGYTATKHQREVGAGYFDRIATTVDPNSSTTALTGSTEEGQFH

ICL [4] = target: T1, ICL; details: read-out: IC50 against ICL; ref Muñoz-Elías and McKinney, 2005; cited from earlier work
[5] = read-out: MIC99 mc^2-7000 Mtb acetate
[6] = read-out: MIC99 mc^2-7000 Mtb dextrose

Cc1ccccc1C(=O)CC(=O)C(=O)O [Compound 1]
MIC99 mc^2-7000 Mtb dextrose (mc^2-7000 Mtb): 200 µM (≈ 41.2 µg/mL) | MIC99 mc^2-7000 Mtb acetate (mc^2-7000 Mtb): >200 µM | λmax (UV absorbance peak): 326 nM | Mouse plasma protein binding [1]: 70.7 ± 1.8% | H37Rv MIC99 on acetate (H37Rv; acetate): 16 µM | H37Rv MIC99 on dextrose (H37Rv; dextrose): 31 µM | Half-life [2]: 720 h

COc1c(N2C[C@@H]3CCCN[C@@H]3C2)c(F)cc2c(=O)c(C(=O)O)cn(C3CC3)c12 [Moxifloxacin]
Decrease in log10 CFU in lungs (M. tuberculosis): 3.07 log10 CFU

O=C(O)C(=O)CC(=O)c1ccccc1Cl [Compound 3]
MIC99 mc^2-7000 Mtb dextrose (mc^2-7000 Mtb): 200 µM (≈ 45.3 µg/mL) | MIC99 mc^2-7000 Mtb acetate (mc^2-7000 Mtb): >200 µM | λmax (UV absorbance peak): 324 nM | Half-life [2]: 840 h

O=C(O)C(=O)CC(=O)c1ccccc1F [Compound 2]
MIC99 mc^2-7000 Mtb dextrose (mc^2-7000 Mtb): 200 µM (≈ 42 µg/mL) | MIC99 mc^2-7000 Mtb acetate (mc^2-7000 Mtb): >200 µM | λmax (UV absorbance peak): 333 nM | Half-life [2]: 288 h

O=C(O)/C(O)=C/C(=O)c1ccccc1 [PDKA, (Z)-2-hydroxy-4-oxo-4-phenylbut-2-enoic acid]
MIC99 (mc^2-7000 Mtb; [5]): 50 µM (≈ 9.61 µg/mL) | MIC99 (mc^2-7000 Mtb; [6]): 25 µM (≈ 4.8 µg/mL) | activity against ICL (ICL [3]): inactive | λmax (UV absorbance peak): 340 nM | Half-life (physchem): ~72 h

O=C(O)C(=O)CC(=O)c1ccc(Br)cc1 [Compound 9]
MIC99 mc^2-7000 Mtb dextrose (mc^2-7000 Mtb): 25 µM (≈ 6.78 µg/mL) | MIC99 mc^2-7000 Mtb acetate (mc^2-7000 Mtb): 50 µM (≈ 13.6 µg/mL) | λmax (UV absorbance peak): 345 nM | Half-life [2]: 170 h

O=C(O)CC[N+](=O)[O-] [3-nitropropionate]
IC50 (ICL [4]): 3000 nM

Cc1ccc(C(=O)CC(=O)C(=O)O)cc1 [Compound 8]
MIC99 mc^2-7000 Mtb dextrose (mc^2-7000 Mtb): 100 µM (≈ 20.6 µg/mL) | MIC99 mc^2-7000 Mtb acetate (mc^2-7000 Mtb): 50 µM (≈ 10.3 µg/mL) | λmax (UV absorbance peak): 340 nM | Half-life [2]: 190 h

O=C(O)C(=O)CC(=O)c1cccc(Cl)c1 [Compound 6]
MIC99 mc^2-7000 Mtb dextrose (mc^2-7000 Mtb): 25 µM (≈ 5.67 µg/mL) | MIC99 mc^2-7000 Mtb acetate (mc^2-7000 Mtb): 25 µM (≈ 5.67 µg/mL) | λmax (UV absorbance peak): 341 nM | Half-life [2]: 170 h

CO[C@H]1/C=C/O[C@@]2(C)Oc3c(C)c(O)c4c(O)c(c(/C=N/N5CCN(C)CC5)c(O)c4c3C2=O)NC(=O)/C(C)=C\C=C\[C@H](C)[C@H](O)[C@@H](C)[C@@H](O)[C@@H](C)[C@H](OC(C)=O)[C@@H]1C [Rifampicin, reference compound]
MIC99 (mc^2-7000 Mtb; [5]): 0.25 µM (≈ 0.206 µg/mL) | MIC99 (mc^2-7000 Mtb; [6]): 0.125 µM (≈ 0.103 µg/mL)
